# Results published in article PMC7392676 (BMC Microbiology, 2020).
# What was measured:
# Xf = settings: cited from earlier work
# [1] = system: Xanthomonas axonopodis pv. vesicatoria; settings: cited from earlier work
# Xff strain Temecula = format: cell-based, Xylella fastidiosa subsp. fastidiosa
# [2] = system: Pseudomonas syringae pv. syringae; settings: cited from earlier work
# Erwinia amylovora = settings: cited from earlier work
substance,measurement,setting,value
magainin II,MIC or MBC against Xf,Xf,8 to 64 µg/mL
gomesin,MIC or MBC against Xf,Xf,4.5 to 9 µg/mL
dermaseptin,MIC or MBC against Xf,Xf,8 to 32 µg/mL
KDWEHLKDWEHLKDWEHL-OH [tag54],MIC Xav,[1],> 100 µM
same,Log N0/N (log reduction of Xff cell viability),Xff strain Temecula,0 ± 0 log
same,antimicrobial activity against Xff cells (in words),Xff strain Temecula,did not show antimicrobial activity
same,MIC Psa,[2],> 100 µM
same,MIC Ea,Erwinia amylovora,> 100 µM
